Reference: patent US4208327A, “5-Aryl-1-(2-oxazolin-2-yl)-1H-1,4-benzodiazepines and related compounds” (G. D. Searle & Co., priority 1979, dated 1980)

How the values were obtained:
[1] = Blockade of pentylenetetrazole induced clonic convulsions, intragastric; assay type: in vivo, mice; conditions: for ED50: Mus musculus, po
Procedure: Exp. Ther., 108, 168 (1953)]. […] Both test compounds were administered intragastrically at specific time periods prior to the pentylenetetrazole challenge, and the ED50 for blockade of clonic convulsions was determined for each time period. Duration of activity is inferred from increases in the ED50 with time.

[2] = Multiple VI-FR conflict procedure (anti-conflict, anti-anxiety); assay type: in vivo, squirrel monkey; conditions: intragastric
[3] = Blockade of pentylenetetrazole induced clonic convulsions, intravenous; assay type: in vivo, mice; conditions: for ED50: Mus musculus, read-out: ED50 (95% confidence limits), anti-pentylenetetrazole effect
[4] = Rotarod test (muscle relaxant); assay type: in vivo, mice; conditions: intragastric; for ED50: Mus musculus, po, read-out: Rotarod ED50 (95% confidence limits)
Procedure: Using this procedure [after Dunham, N.W. and T.S. Miya, J. Amer. Pharm. […] The compounds were administered intragastrically to mice at varying time periods before being placed on the horizontal rotating (4.4 rpm) rod. Different groups of mice were assigned to each time period so that a subject was tested only once. A testing trial consisted of two opportunities to stay on the rod for one minute. ED50 's were calculated for each time period.

[5] = Comparison of durations of anti-conflict activity, drug crossover design, 16 hours after treatment; assay type: in vivo, squirrel monkey; conditions: molar equivalent dose, 16 hours later; for bar pressing rate during the conflict segments, % of pre-compound control levels: 14 squirrel monkeys, crossover
[6] = Potentiation of a sub-hypnotic dose of pentobarbital sodium (loss of righting reflex); assay type: in vivo, mice; conditions: for ED50 (95% confidence limits), potentiation of pentobarbital sodium (loss of righting reflex): pentobarbital sodium 20 mg/kg i.p.
Excerpt: In this procedure an ED50 for loss of righting reflex was established.

[7] = 5 min, read-out: ED50 (95% confidence limits), anti-pentylenetetrazole effect, 5 min
[8] = 0.5 h, read-out: ED50 (95% confidence limits), anti-pentylenetetrazole effect, 30 min
[9] = read-out: ED50 (95% confidence limits), anti-pentylenetetrazole effect, 15 min
[10] = read-out: ED50 (95% confidence limits), anti-pentylenetetrazole effect, 1 hour
[11] = read-out: ED50 (95% confidence limits), anti-pentylenetetrazole effect, 2 hours
[12] = read-out: ED50 (95% confidence limits), anti-pentylenetetrazole effect, 4 hours
[13] = read-out: ED50 (95% confidence limits), anti-pentylenetetrazole effect, 8 hours
[14] = intragastric, .25 hours, 15 min

SMILES: Clc1ccc2c(c1)C(c1ccccc1Cl)=NCCN2C1=NCCO1 [Compound I, 7-chloro-5-(o-chlorophenyl)-2,3-dihydro-1-(2-oxazolin-2-yl)-1H-1,4-benzodiazepine]
- time to peak anti-pentylenetetrazole activity [1]: ≤ 15 min
- change of ED50 in 30 minutes ([1]; 30 minutes): nearly doubled
- increase of ED50 by 8 hours [1]: about 20 fold
- ED50 [1, 7]: 3.8 mg/kg
- ED50 [1, 8]: 1.9 mg/kg
- ED50 [1, 9]: 1 mg/kg
- ED50 [1, 10]: 1.8 mg/kg
- ED50 [1, 11]: 6.2 mg/kg
- ED50 [1, 12]: 7.1 mg/kg
- ED50 [1, 13]: 19.6 mg/kg
- duration of activity ([1]; compared with diazepam): much shorter duration of activity than Diazepam
- Conflict (FR) bar pressing rate, percentage of average pre-compound control rate ([2]; 1.26 mg/kg, N 5): 1519%
- Non-Conflict (VI) bar pressing rate, percentage of average pre-compound control rate ([2]; 1.26 mg/kg, N 5): 46%
- Conflict (FR) bar pressing rate, percentage of average pre-compound control rate ([2]; .07 mg/kg, N 5): 281%
- Non-Conflict (VI) bar pressing rate, percentage of average pre-compound control rate ([2]; .07 mg/kg, N 5): 100%
- dose response of bar pressing rates during the conflict segment ([2]; .07 to 1.26 mg/kg): clear dose responsive increase in bar pressing rates during the conflict segment
- Conflict (FR) bar pressing rate, percentage of average pre-compound control rate ([2]; .126 mg/kg, N 6): 514%
- Non-Conflict (VI) bar pressing rate, percentage of average pre-compound control rate ([2]; .126 mg/kg, N 6): 101%
- Conflict (FR) bar pressing rate, percentage of average pre-compound control rate ([2]; .404 mg/kg, N 6): 1286%
- Non-Conflict (VI) bar pressing rate, percentage of average pre-compound control rate ([2]; .404 mg/kg, N 6): 100%
- ED50 ([3]; 1 min, intravenous, 1 min): 0.12 mg/kg
- ED50 ([3]; 0.5 h, intravenous, 30 min): 0.23 mg/kg
- ED50 ([3]; intravenous, 15 min): 0.18 mg/kg
- ED50 ([3]; intravenous, 1 hour): 0.57 mg/kg
- ED50 ([3]; intravenous, 2 hours): 1.44 mg/kg
- ED50 ([3]; intravenous, 4 hours): 4.79 mg/kg
- ED50 ([3]; intravenous, 8 hours): 17.8 mg/kg
- time to peak activity ([3]; intravenous): one
- anti-convulsant effectiveness ([3]; intravenous as well as intragastric route): effective as an anti-convulsant
- increase of ED50 over the 8 hour period ([3]; intravenous, 8 hours): ~150 fold
- duration of activity ([3]; intravenous, compared with diazepam): shorter duration of activity
- ED50 ([4]; 0.08 h, .08 hours): 8.5 mg/kg
- ED50 ([4]; 0.5 h, .5 hours): 8.9 mg/kg
- ED50 ([4]; 1.0 hours): 24 mg/kg
- ED50 ([4]; 2.0 hours): 74.9 mg/kg
- ED50 ([4]; .25 hours): 2.9 mg/kg
- increase of rotarod ED50 from 15 minutes to 2 hours [4]: 25 fold
- time to peak effect (rotarod) [4]: ≤ 15 min
- duration of action (rotarod) ([4]; compared with diazepam): shorter duration of action
- loss of potency over the two hour period (rotarod) ([4]; two hours): rapidly lost potency
- duration of anti-anxiety (anti-conflict) action, in words [5]: shorter duration of action of anti-anxiety effect
- bar pressing rate during the conflict segments, % of pre-compound control levels [5]: 123%
- duration of sedative-hypnotic activity ([6]; compared with a standard benzodiazepine (diazepam)): shorter duration of sedative-hypnotic activity
- ED50 (95% confidence limits), potentiation of pentobarbital sodium (loss of righting reflex) ([6]; intragastric, 1.0 hours): 24.1(17.9-32.4) mg/kg
- ED50 (95% confidence limits), potentiation of pentobarbital sodium (loss of righting reflex) ([6]; intragastric, 2.0 hours): 39.1(28.1-54.3) mg/kg
- ED50 (95% confidence limits), potentiation of pentobarbital sodium (loss of righting reflex) [6, 14]: 5.6(3.8-8.4) mg/kg
- increase of ED50 for potentiating pentobarbital sodium ([6]; intragastric, two hour period): about 7 fold

SMILES: CN1C(=O)CN=C(c2ccccc2)c2cc(Cl)ccc21 [Diazepam, diazepam, reference compound]
- time to peak anti-pentylenetetrazole activity [1]: ≤ 15 min
- increase of ED50 by 8 hours [1]: 2 fold
- ED50 [1, 7]: 1.1 mg/kg
- ED50 [1, 8]: 0.8 mg/kg
- ED50 [1, 9]: 0.9 mg/kg
- ED50 [1, 10]: 0.8 mg/kg
- ED50 [1, 11]: 0.7 mg/kg
- ED50 [1, 12]: 1.6 mg/kg
- ED50 [1, 13]: 1.4 mg/kg
- ED50 ([3]; 1 min, intravenous, 1 min): 0.07 mg/kg
- ED50 ([3]; 0.5 h, intravenous, 30 min): 0.23 mg/kg
- ED50 ([3]; intravenous, 15 min): 0.26 mg/kg
- ED50 ([3]; intravenous, 1 hour): 0.48 mg/kg
- ED50 ([3]; intravenous, 2 hours): 0.75 mg/kg
- ED50 ([3]; intravenous, 4 hours): 1.16 mg/kg
- ED50 ([3]; intravenous, 8 hours): 1.78 mg/kg
- increase of ED50 over the 8 hour period ([3]; intravenous, 8 hours): 25 fold
- duration of anti-anxiety (anti-conflict) action, in words [5]: still produced pronounced anti-conflict effects
- bar pressing rate during the conflict segments, % of pre-compound control levels [5]: 1265%
- ED50 (95% confidence limits), potentiation of pentobarbital sodium (loss of righting reflex) ([6]; intragastric, 1.0 hours): 3.8(2.7-5.4) mg/kg
- ED50 (95% confidence limits), potentiation of pentobarbital sodium (loss of righting reflex) ([6]; intragastric, 2.0 hours): 3.6(2.4-5.4) mg/kg
- ED50 (95% confidence limits), potentiation of pentobarbital sodium (loss of righting reflex) [6, 14]: 4.1(2.7-6.3) mg/kg
